A word on the IC50: it is the midpoint of a concentration-inhibition curve. A high value points to weaker potency in that assay.

This experiment deals with T1, human TSHR (Homo sapiens, UniProt P16473).
T1 construct: expressed in transfected cells
Description: Measurement of antagonist activity using TSH-induced cAMP production in human TSHR-stably expressing CHO cells. Format: cell-based. Conditions: human TSH final concentration 50 ng/mL. The method, then: Measurement of Antagonist Activity Using TSH-induced cAMP Production in Human TSHR-stably Expressing CHO Cells as an Indicator
A gene sequence of human TSHR (reference number NM_000369.2) was inserted into a multiple cloning site of pcDNA3.1(+). The prepared plasmid vector was introduced into CHO cells by a lipofection method to establish human TSHR stably expressing CHO cells. The obtained cells were seeded in a poly-D-lysine-coated 96-well plate at 5 x 10^4 cells/well, and cultured for 1 day in F12 medium containing 10% FBS, 400 µg/mL G418, 50 U/mL penicillin, and 50 µg/mL streptomycin under conditions of 37°C and 5% CO2. After removing a medium, the cells were washed twice with 100 µL per well of an assay buffer (Hanks' Balanced Salt Solution containing 20 mM HEPES and 1 mM IBMX). 30 µL of an assay buffer containing a test compound was added to a well, and the mixture was incubated at room temperature for 15 minutes. Next, 30 µL of an assay buffer containing human TSH (R&D Systems, Inc., final concentration 50 ng/mL) was added, and the mixture was incubated at 37°C for 1 hour. The supernatant was removed, and Lysis and Detection Buffer 2 (Cisbio) was added to prepare a cell lysate by incubating at room temperature for 1 hour. According to the instructions for use of a cAMP Gs HiRange kit (Cisbio), a cell lysate was reacted with d2-labeled cAMP and an anti-cAMP Europium Cryptate labeled antibody (Cisbio) in a 384-well white microplate. Next, a fluorescence intensity ratio (measurement wavelengths 665 nm/620 nm) was measured using a multiplate reader (PHERAstar FSX, BMG LABTECH Japan). A fluorescence intensity ratio of each sample was converted into a cAMP content using a standard curve. A cAMP content was converted into a percentage of a control value, and a cAMP production rate was calculated. Using Prism (Graph Pad Software Inc.), a cAMP production rate was plotted against a test compound concentration, and an IC50 value was calculated. The IC50 of each test compound is shown in the above tables. In the tables, IC50 < 3.0 µM was denoted as A, and 3.0 µM ≤ IC50 < 30 µM was denoted as B. The case where activity was observed but an IC50 value could not be calculated was denoted as C.
For orientation: Cyclic AMP is a second messenger, typically raised through Gs and lowered through Gi signalling.

T1 sequence (P16473 21-764): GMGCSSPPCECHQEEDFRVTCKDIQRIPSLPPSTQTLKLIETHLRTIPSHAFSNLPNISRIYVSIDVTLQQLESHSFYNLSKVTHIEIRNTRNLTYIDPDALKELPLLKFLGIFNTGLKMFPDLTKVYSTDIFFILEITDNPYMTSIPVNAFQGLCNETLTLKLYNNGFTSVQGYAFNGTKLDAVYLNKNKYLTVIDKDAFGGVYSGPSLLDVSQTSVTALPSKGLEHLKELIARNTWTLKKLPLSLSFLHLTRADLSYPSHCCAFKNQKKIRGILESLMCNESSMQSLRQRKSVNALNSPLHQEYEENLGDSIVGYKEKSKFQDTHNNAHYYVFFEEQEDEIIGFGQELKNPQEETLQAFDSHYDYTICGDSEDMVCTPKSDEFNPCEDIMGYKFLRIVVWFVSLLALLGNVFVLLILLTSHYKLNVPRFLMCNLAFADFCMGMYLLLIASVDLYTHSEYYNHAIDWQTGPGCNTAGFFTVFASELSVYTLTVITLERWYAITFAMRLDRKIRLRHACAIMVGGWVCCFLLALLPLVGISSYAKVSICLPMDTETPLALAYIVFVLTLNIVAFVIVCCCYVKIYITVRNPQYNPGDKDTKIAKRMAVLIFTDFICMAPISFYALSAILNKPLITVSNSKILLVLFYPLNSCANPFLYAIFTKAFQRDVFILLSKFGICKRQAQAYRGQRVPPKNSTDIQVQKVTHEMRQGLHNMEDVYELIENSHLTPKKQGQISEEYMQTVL

For the molecule `C[C@@H]1CC[C@@H](NC(N)=O)C(=O)N1Cc1cc(Br)ccc1F` (relative stereo) [Example A-1, 1-((3R^*,6R^*)-1-(5-bromo-2-fluorobenzyl)-6-methyl-2-oxopiperidin-3-yl)urea], the IC50 fell in the range of 3 to 30 µM. In the case of `C[C@@H]1CC[C@@H](NC(N)=O)C(=O)N1Cc1cc(C(F)F)ccc1F` (relative stereo) [Example A-2, 1-((3R^*,6R^*)-1-(5-(difluoromethyl)-2-fluorobenzyl)-6-methyl-2-oxopiperidin-3-yl)urea], the IC50 was less than 3 µM. The same measure for `C[C@@H]1CC[C@@H](NC(N)=O)C(=O)N1Cc1cc(C(F)(F)F)cc(Cl)c1F` (relative stereo) [Example A-3, 1-((3R^*,6R^*)-1-(3-chloro-2-fluoro-5-(trifluoromethyl)benzyl)-6-methyl-2-oxopiperidin-3-yl)urea]: less than 3 µM. `C[C@@H]1CC[C@@H](NC(N)=O)C(=O)N1Cc1cc(-c2ccccc2)ccc1F` (relative stereo) [Example A-4, 1-((3R^*,6R^*)-1-((4-fluoro-[1,1'-biphenyl]-3-yl)methyl)-6-methyl-2-oxopiperidin-3-yl)urea]: the IC50 lay within 3 to 30 µM.

`C[C@@H]1CC[C@@H](NC(N)=O)C(=O)N1Cc1cc(Cc2ccccc2)ccc1F` (relative stereo) [Example A-5, 1-((3R^*,6R^*)-1-(5-benzyl-2-fluorobenzyl)-6-methyl-2-oxopiperidin-3-yl)urea] gave an IC50 of less than 3 µM. Regarding `C[C@@H]1CC[C@@H](NC(N)=O)C(=O)N1Cc1cccc(Oc2ccccc2)c1` (relative stereo) [Example A-6, 1-((3R^*,6R^*)-6-methyl-2-oxo-1-(3-phenoxybenzyl)piperidin-3-yl)urea], the IC50 is 3 to 30 µM. Turning to `C[C@@H]1CC[C@@H](NC(N)=O)C(=O)N1Cc1cc(C#Cc2ccccc2)ccc1F` (relative stereo) [Example A-7, 1-((3R^*,6R^*)-1-(2-fluoro-5-(phenylethynyl)benzyl)-6-methyl-2-oxopiperidin-3-yl)urea], the IC50 is less than 3 µM.

On to `C[C@@H]1CC[C@@H](NC(N)=O)C(=O)N1Cc1cc(C#Cc2ccncc2)ccc1F` (relative stereo) [Example A-8, 1-((3R^*,6R^*)-1-(2-fluoro-5-(pyridin-4-ylethynyl)benzyl)-6-methyl-2-oxopiperidin-3-yl)urea], for which the IC50 is less than 3 µM. Take `C[C@@H]1CC[C@@H](NC(N)=O)C(=O)N1Cc1cc(C#Cc2cccnc2)ccc1F` (relative stereo) [Example A-9, 1-((3R^*,6R^*)-1-(2-fluoro-5-(pyridin-3-ylethynyl)benzyl)-6-methyl-2-oxopiperidin-3-yl)urea]: the IC50 was less than 3 µM. Molecule `C[C@@H]1CC[C@@H](NC(N)=O)C(=O)N1Cc1cc(C#CC2CC2)ccc1F` (relative stereo) [Example A-10, 1-((3R^*,6R^*)-1-(5-(cyclopropylethynyl)-2-fluorobenzyl)-6-methyl-2-oxopiperidin-3-yl)urea] displayed an IC50 of 3 to 30 µM.

On to `C[C@@H]1CC[C@@H](NC(N)=O)C(=O)N1Cc1cc(OCc2ccccc2)ccc1F` (relative stereo) [Example A-11, 1-((3R^*,6R^*)-1-(5-(benzyloxy)-2-fluorobenzyl)-6-methyl-2-oxopiperidin-3-yl)urea], for which the IC50 is less than 3 µM. Consider `C[C@@H]1CC[C@@H](NC(N)=O)C(=O)N1Cc1cc(CCc2ccccc2)ccc1F` (relative stereo) [Example A-12, 1-((3R^*,6R^*)-1-(2-fluoro-5-phenethylbenzyl)-6-methyl-2-oxopiperidin-3-yl)urea], for which the IC50 was less than 3 µM. As for `CC(C)(C)OC(=O)NCC[C@@H]1C[C@H](NC(N)=O)C(=O)N(Cc2cc(C(F)(F)F)ccc2F)C1` (relative stereo) [Example A-19, tert-butyl (2-((3R*,5S*)-1-(2-fluoro-5-(trifluoromethyl)benzyl)-6-oxo-5-ureidopiperidin-3-yl)ethyl)carbamate], the figure is less than 3 µM; as for `NC(=O)N[C@@H]1C[C@H]2C[C@H]2N(Cc2cc(C(F)(F)F)ccc2F)C1=O` (relative stereo) [Example A-21, 1-((1R^*,4R^*,6S^*)-2-(2-fluoro-5-(trifluoromethyl)benzyl)-3-oxo-2-azabicyclo[4.1.0]heptan-4-yl)urea], less than 3 µM; as for `C[C@H]1CC[C@@H](NC(N)=O)C(=O)N1CCc1cccc(C(F)(F)F)c1` (relative stereo) [Example A-23, 1-((3R^*,6S^*)-6-methyl-2-oxo-1-(3-(trifluoromethyl)phenethyl)piperidin-3-yl)urea], 3 to 30 µM.

In the case of `NC(=O)N[C@@H]1C[C@@H]2CCCC[C@H]2N(Cc2cccc(C(F)(F)F)c2)C1=O` (relative stereo) [Example A-29, 1-((3R^*,4aS^*,8aR^*)-(2-oxo-1-(3-(trifluoromethyl)benzyl)decahydroquinolin-3-yl)urea], the IC50 is more than 30 µM.

In turn, `CN(C)C(=O)C[C@@H]1CC[C@@H](NC(N)=O)C(=O)N1Cc1cc(C(F)(F)F)ccc1F` (relative stereo) [Example D-10, 2-((2S^*,5R^*)-1-(2-fluoro-5-(trifluoromethyl)benzyl)-6-oxo-5-ureidopiperidin-2-yl)-N,N-dimethylacetamide] had an IC50 of more than 30 µM. The same measure for `C[C@@H]1CC[C@@H](NC(N)=O)C(=O)N1Cc1cc(C(F)(F)F)ccc1F` [Example A-13, 1-((3R,6R)-1-(2-fluoro-5-(trifluoromethyl)benzyl)-6-methyl-2-oxopiperidin-3-yl)urea]: less than 3 µM; for `NC(=O)N[C@@H]1CC[C@@H](C(F)(F)F)N(Cc2cc(C(F)(F)F)ccc2F)C1=O` [Example A-14, 1-((3R,6S)-1-(2-fluoro-5-(trifluoromethyl)benzyl)-2-oxo-6-(trifluoromethyl)piperidin-3-yl)urea]: less than 3 µM. Consider `NC(=O)N[C@@H]1CC[C@@H](C(F)(F)F)N(Cc2cc(C(F)F)ccc2F)C1=O` [Example A-15, 1-((3R,6S)-1-(5-(difluoromethyl)-2-fluorobenzyl)-2-oxo-6-(trifluoromethyl)piperidin-3-yl)urea], for which the IC50 is less than 3 µM.

As for `NC(=O)N[C@@H]1CC[C@@H](C(F)(F)F)N(Cc2cc(OC(F)(F)C(F)F)ccc2F)C1=O` [Example A-16, 1-((3R,6S)-1-(2-fluoro-5-(1,1,2,2-tetrafluoroethoxy)benzyl)-2-oxo-6-(trifluoromethyl)piperidin-3-yl)urea], the IC50 was less than 3 µM. In the case of `NC(=O)N[C@@H]1CC[C@@H](C(F)F)N(Cc2cc(C(F)(F)F)ccc2F)C1=O` [Example A-17, 1-((3R,6S)-6-(difluoromethyl)-1-(2-fluoro-5-(trifluoromethyl)benzyl)-2-oxopiperidin-3-yl)urea], the 50% inhibitory concentration (IC50) is less than 3 µM. `NC(=O)N[C@@H]1C[C@H](F)CN(Cc2cc(C(F)(F)F)ccc2F)C1=O` [Example A-18, 1-((3R,5S)-5-fluoro-1-(2-fluoro-5-(trifluoromethyl)benzyl)-2-oxopiperidin-3-yl)urea] yielded an IC50 of more than 30 µM. `NC(=O)NC1CCC2(CC2)N(Cc2cccc(C(F)(F)F)c2)C1=O` (stereo not shown) [Example A-20, 1-(5-oxo-4-(3-(trifluoromethyl)benzyl)-4-azaspiro[2.5]octan-6-yl)urea] had an IC50 of 3 to 30 µM.

For the molecule `CC(c1cc(C(F)(F)F)ccc1F)N1C(=O)[C@H](NC(N)=O)CC[C@H]1C(F)(F)F` (stereo partly drawn) [Example A-22, 1-((3R,6S)-1-(1-(2-fluoro-5-(trifluoromethyl)phenyl)ethyl)-2-oxo-6-(trifluoromethyl)piperidin-3-yl)urea], the IC50 was more than 30 µM.
